# Assay results from patent US6572865B1, “Mycobacterium tuberculosis DNA sequences encoding immunostimulatory peptides and methods for using same” (priority 1995, dated 2003).
# Like-named read-outs stand apart in the source and are kept apart here.
# B1: AciI#2-874: AP-fusion clone; SEQ ID NO: 73; MTCY190.20 (protein)
# chain: VMPSSIGLVVGSMLWRQINRLFGVRGLCWAAHCSTPLCAAVHGGRVVWAVGSRLGVLHGVPAGYGGRSNGGRRIDIVDQRPRAR
# notes: AP-fusion clone; MTCY190.20
# B2: AciI#3-243: AP-fusion clone; SEQ ID NO: 112; MTCY50.02 (protein)
# chain: AGGCGACGGTTGGCACCACCACGAGTGAGTCAGGCAGGAGCCCCGCCACGTTGCGGACGGCGCGAATCTTCGCCTGTGGCTCACCGACTTTCCGCCCAACTTCAACGATCTTGCACATGGACGGCAAGAACGCCGAGGTCGCG
# notes: AP-fusion clone; MTCY50.02
# Experiments:
# [1] = tested on: T-cells from tuberculin-positive people; type: cell-based, human
# [2] = tested on: immune T-cells; type: cell-based, mice; settings: Table 2; background subtracted; up to ten μg fusion peptide
# [3] = 5×10^5 mononuclear cells, up to 1 μg/mL peptide or up to 50 ng/mL PhoA fusion protein
# [4] = up to 1 μg/mL peptide or up to 50 ng/mL PhoA fusion protein, background 103.3
Molecule,"Concentration of INF-γ [1, 3] [pg/mL]","Concentration of INF-γ minus background [1, 4] [pg/mL]",Concentration of INF-γ ([1]; control at 10 μg/mL) [pg/mL],Concentration of INF-γ minus background ([1]; control at 10 μg/mL) [pg/mL],INF: pg/mL of INF-γ produced using fusion to stimulate immune T-cells [2]
"EYSRFVGDVFGAPLAME [CD-2/1/96/10, synthetic peptide from AciI#2-827]",134.0,30.7,,,
"GKTYDAYFTDAGGITPG [HPI1-3/2, synthetic peptide from HinP#1-3]",136.3,23.0,,,
"GRAELSSIVVLLTNNTA [CD-2/1/96/14, synthetic peptide from AciI#2-827]",310.2,206.9,,,
PhoA control: PhoA protein employed as a negative control [reference compound],,,26.7,0,
"SRFVGDVFGAPLAMESL [CD-2/1/96/11, synthetic peptide from AciI#2-827]",141.6,38.3,,,
"VTDNPAWYRLTKFFGKL [CD-2/1/96/1, synthetic peptide from AciI#2-827]",256.6,153.3,,,
"WSEYSRFVGDVFGAPLA [CD-2/1/96/9, synthetic peptide from AciI#2-827]",187.6,84.3,,,
"YDAYFTDAGGITPGNSV [HPI1-3/3, synthetic peptide from HinP#1-3]",264.2,160.9,,,
B1,,,,,"2,171 pg/mL"
B2,,,,,"2,857 pg/mL"
